Results reported in publication PMC8623418, “Novel Multitarget Hydroxamic Acids with a Natural Origin CAP Group against Alzheimer’s Disease: Synthesis, Docking and Biological Evaluation” (Pharmaceutics, 2021).
pIC50: −log10 of the molar value.

Tests used:
[1] = Stability in rat blood plasma, LC–MS/MS; format: in vitro ADME; conditions: 1000 ng/mL spike
Method: EDTA-stabilized rat blood plasma was used in the study. The spikes were prepared by adding 100 µL of the solution of a compound to 900 µL of plasma, followed by continuous shaking. A 100 µL aliquot of a sample was taken and mixed with 900 µL of MeOH, shaken for 15 min, and centrifuged. Then, 100 µLc of the supernatant was transferred to a vial insert and analyzed.
HPLC–MS/MS analyses were performed using a Shimadzu LC-20AD Prominence chromatograph equipped with a SIL-20AC cooled autosampler and a gradient pump. A column filled with a reversed-phase ProntoSil 120-AQ C18 sorbent (Econova, Novosibirsk) was used. Water with the addition of 0.1% HCOOH was used as mobile phase A, and methanol containing 0.1% HCOOH was used as mobile phase B. The gradient was as follows: 0 min—5% B; 1 min—5% B; 2 min—95% B; 5 min—100% B; the flow rate was 300 μL/min; the injection volume was 10 μL. The column was then equilibrated for the following analysis. […]
To study the stability of the compounds, their solutions (spikes) in rat blood plasma were prepared with a concentration of 1000 ng/mL. […] Aliquots of the spike with a volume of 100 μL were taken after 5, 15, 30, 60, 120, 180, and 270 min, after which the sample was mixed with MeOH, shaken for 10 min, then centrifuged and analyzed with LC–MS/MS.

5xFAD transgenic mice [2] = assay: Open field test in 5xFAD mice; format: in vivo; conditions: 15 mg/kg i.p. for 20 days, 11-month-old male 5xFAD mice
Method: (§1) All animal procedures were approved by the Animal Care and Use Committee of IPAC RAS. For in vivo studies, 11-month-old male mice of the 5xFAD line (Tg(APPSwFlLon,PSEN1*M146L*L286V) 6799Vas/J) were used. The animals were housed in cages with free access to water and food in a room with a 12 h/12 h light–dark cycle, at a temperature of 23 ± 1 °C and humidity of 50 ± 5%. Before the series of experiments, animals were randomly divided into four groups (n = 8 per group): (1) wild-type group (C57BL6/j mouse line); (2) 5xFAD group; (3) 5xFAD + 15 group; and (4) 5xFAD + 25 group.
(§2) Both compounds 15 and 25 were dissolved in saline solution and DMSO (10%) immediately before use and intraperitoneally administered to animals for 20 days at a dose of 15 mg/kg body weight for experiments. In the control group, the vehicle solution (saline and DMSO (10%), intraperitoneal) was administered with the same time schedule.
The open field box consisted of a square, non-transparent, grey box (40 cm × 40 cm × 40 cm). Illumination intensity was kept at 50 lux. During a session, a single animal was allowed to explore the empty open field, and its baseline level of activity was measured. The session lasted for 10 min (Figure 5A). […] The number of standing events was manually counted in a blind manner by one observer. […]

5xFAD transgenic mice [3] = assay: Novel Object Recognition Test in 5xFAD mice; format: in vivo; conditions: 15 mg/kg i.p. for 20 days, testing trial 24 h after familiarization
Method: as §1, §2
The Novel Object Recognition Test assesses a mouse’s ability to remember if it has previously encountered an object or not. The same box that had been used in the open field test was used for the Novel Object Recognition Test. Mice were habituated to the box one day before the test, during the open field test. […] All trials were videotaped and analyzed with a computer-operated EthoVision XT system (Noldus, Wageningen, the Netherlands). […]

HEK 293 cells = assay: MTT cell viability, HEK 293; format: cell-based; conditions: Homo sapiens, HEK293; HEK-293, MTT test
Method: The effect of the hydroxamic acids on the viability of cells obtained from human embryonic kidneys, HEK 293, as well as the native form of human neuroblastoma, SH-SY5Y, was evaluated in the MTT test. Using a multifunctional flatbed analyzer, Cytation™3 (BioTek Instruments, Inc., Winooski, VT, USA), the optical density was determined at a wavelength of 530 nm. Based on the dose-dependent curves, the concentration values leading to 50% inhibition of cell population growth (IC50) were calculated.
Due to the fact that most compounds of the class of hydroxamic acids have high cytotoxic activity and are mainly used as anticancer drugs, their use as neuroprotective drugs is limited. Since the goal of our work was to search for agents for the pharmacological correction of neurodegenerative diseases, a necessary part of the biological activity study of the synthesized hydroxamic acids was to determine their effect on the survival of cell cultures. In our work, we used neuron-like neuroblastoma cells SH-SY5Y and a healthy cell line isolated from the human embryonic kidney, HEK 293.

Row | Time stable in rat blood plasma [1] | SMILES | half-life at 1000 ng/mL ([1]; rat, EDTA-stabilized rat blood plasma, estimated from the graph) | Open field: standing events, distance, movement rate, time in central and peripheral areas (5xFAD transgenic mice [2]) | Novel object preference (episodic memory) (5xFAD transgenic mice [3]) | pIC50 (HEK 293 cells)
1 |  | O=C(CCCCCCC(=O)NC1C2CC3CC(C2)CC1C3)NO (centres unmarked) [compound 15, N^1-(Adamant-2-yl)-N^8-Hydroxyoctanediamide] | 1 to 1.17 h | did not show any alteration | significantly showed a strong preference and spent more time studying a new object | < 4.00
2 | ≥ 4.5 h | O=C(/C=C/c1ccc(C(=O)NO)cc1)NC1C2CC3CC(C2)CC1C3 (centres unmarked) [compound 25, 4-((E)-3-((-Adamantan-2-yl)amino)-3-Oxoprop-1-en-1-yl)-N-Hydroxybenzamide] |  | did not show any alteration | began to show memory impairment when presented with a new object | < 4.00
